Experimental data reported in PMC7380166, “How to Study the Metabolism of New Psychoactive Substances for the Purpose of Toxicological Screenings—A Follow-Up Study Comparing Pooled Human Liver S9, HepaRG Cells, and Zebrafish Larvae” (Frontiers in Chemistry, 2020).

Legend:
CYP2A6 = target: T1, CYP2A6 (Homo sapiens, UniProt P11509); assay: Monooxygenases activity screening, CYP2A6; type: in vitro ADME; parameters: key: +, detected; –: −, not detected; conditions: 25 μM 4F-MDMB-BINACA, 50 pmol/ml enzyme, 30 min, 37°C, duplicate
T1 construct: purchased Corning; host or cells: baculovirus-transfected insect cell microsomes (Supersomes)
T1 sequence (P11509 1-494): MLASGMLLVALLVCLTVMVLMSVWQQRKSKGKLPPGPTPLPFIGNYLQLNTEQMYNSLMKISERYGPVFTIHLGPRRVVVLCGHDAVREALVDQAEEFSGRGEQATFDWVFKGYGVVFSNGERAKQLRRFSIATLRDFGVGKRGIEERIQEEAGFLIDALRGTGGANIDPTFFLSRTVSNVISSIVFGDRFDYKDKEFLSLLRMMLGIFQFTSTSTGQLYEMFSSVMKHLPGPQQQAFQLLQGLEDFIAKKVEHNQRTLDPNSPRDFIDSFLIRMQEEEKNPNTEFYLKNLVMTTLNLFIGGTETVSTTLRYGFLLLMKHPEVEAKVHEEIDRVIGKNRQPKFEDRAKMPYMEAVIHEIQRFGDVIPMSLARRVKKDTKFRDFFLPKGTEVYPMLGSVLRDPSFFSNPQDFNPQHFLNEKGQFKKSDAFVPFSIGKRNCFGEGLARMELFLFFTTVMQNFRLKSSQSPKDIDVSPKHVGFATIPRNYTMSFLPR
Procedure: (§1) According to an established protocol (Wagmann et al., [2016]), the final volume per reaction tube was 50 μl with a final 4F-MDMB-BINACA concentration of 25 μM and enzyme concentrations of 50 pmol/ml for CYP1A2, CYP2A6, CYP2B6, CYP2C8, CYP2C9, CYP2C19, CYP2D6, CYP2E1, CYP3A4, and CYP3A5, respectively, or 0.25 mg protein/ml for FMO3. Furthermore, the reaction mixture contained 90 mM phosphate buffer (pH 7.4), superoxide dismutase (200 U/ml), isocitrate (5 mM), MgCl2 (5 mM), isocitrate dehydrogenase (0.5 U/ml), and NADP^+ (1.2 mM). The phosphate buffer was replaced with Tris buffer (90 mM) for incubations with CYP2A6 and CYP2C9 according to the manufacturer's recommendation. All incubations were performed at 37°C for 30 min and terminated by adding 50 μl of ice-cold acetonitrile. Afterwards, the mixtures were centrifuged at 18,407 × g for 5 min, 70 μl of the supernatants was transferred into autosampler vials, and 1 μl was injected onto the LC-HRMS/MS system. Positive control incubations were performed with pHLM (1 mg microsomal protein/ml), and negative controls without enzyme were prepared to identify non-metabolically formed compounds. All incubations were done in duplicate.

CYP2D6 = target: T2, CYP2D6 (Homo sapiens, UniProt P10635); assay: Monooxygenases activity screening, CYP2D6; type: in vitro ADME; parameters: key: +, detected; –: −, not detected; conditions: 25 μM 4F-MDMB-BINACA, 50 pmol/ml enzyme, 30 min, 37°C, duplicate
T2 construct: purchased Corning; host or cells: baculovirus-transfected insect cell microsomes (Supersomes)
T2 sequence (P10635 whole entry): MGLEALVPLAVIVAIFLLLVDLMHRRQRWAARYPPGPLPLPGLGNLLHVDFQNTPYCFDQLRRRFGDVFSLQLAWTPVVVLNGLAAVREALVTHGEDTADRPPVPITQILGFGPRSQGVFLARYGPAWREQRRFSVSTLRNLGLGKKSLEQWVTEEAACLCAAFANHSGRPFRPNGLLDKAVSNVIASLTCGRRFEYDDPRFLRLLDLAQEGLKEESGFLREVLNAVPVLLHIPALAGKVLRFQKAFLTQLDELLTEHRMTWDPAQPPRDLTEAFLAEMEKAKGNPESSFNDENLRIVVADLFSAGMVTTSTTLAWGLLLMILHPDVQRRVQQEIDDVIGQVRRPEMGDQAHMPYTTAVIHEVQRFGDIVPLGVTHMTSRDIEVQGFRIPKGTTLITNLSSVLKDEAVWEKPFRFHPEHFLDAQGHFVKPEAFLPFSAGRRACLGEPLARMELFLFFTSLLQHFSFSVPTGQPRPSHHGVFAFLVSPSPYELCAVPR
Procedure: as §1

SMILES | Detection of metabolite in incubation with CYP2A6 (CYP2A6) | Detection of metabolite in incubation with CYP2D6 (CYP2D6)
COC(=O)[C@@H](NC(=O)c1n[nH]c2ccccc12)C(C)(C)C [MB4] | – | –
COC(=O)[C@@H](NC(=O)c1nn(CCCCO)c2ccccc12)C(C)(C)C [MB11] | – | –
COC(=O)[C@@H](NC(=O)c1nn(CCCCF)c2ccccc12)C(C)(C)CO [MB16] | – | –
CC(C)(C)C(NC(=O)c1nn(CCCCF)c2ccccc12)C(=O)O (stereo not shown) [MB8] | – | –
O=C(O)c1nn(CCCCF)c2ccccc12 [MB1] | – | –
